We go through 16 compounds from patent US20250367129A1, “Lipid Compounds and Uses Thereof” (Pfizer Inc., priority 2022, published 2025).

The subject of one data set is Hela cells. Briefly: In vitro expression of novel ionizable lipid nanoparticles, high content imaging (CA HA modFlu mRNA). In kind it is cell-based. The following applies: LNP with CA HA modFlu mRNA. As for the experimental part: (§1) Plated Hek293T or Hela cells were dosed with lipid nanoparticles in a total volume of 40 μl cell culture media and incubated overnight at 37° C. and 5% CO2. After fixation with 4% paraformaldehyde in PBS cells were washed in PBS containing 0.3% Triton-X100 and 3% BSA (w/v), followed by nuclear staining with Hoechst and antibody staining for the encoded gene of interest. Nuclear count and identification of cells stained positive for gene of interest was done on an Opera Phenix high content imager (PerkinElmer, USA).
(§2) Lipid nanoparticles were prepared and tested according to the general procedures described in U.S. Pat. No. 9,737,619 (PCT Pub. No. WO2015/199952) and U.S. Pat. No. 10,166,298 (PCT Pub. No. WO 2017/075531) and PCT Pub. No. WO2020/146805. The novel ionizable lipids of the invention, cholesterol, distearoylphosphatidylcholine (DSPC) and ALC-0159 2-[(polyethylene glycol)-2000]-N,N ditetradecylacetamide were solubilized in ethanol at a molar ratio of about 46.3:42.7:9.4:1.6. Lipid nanoparticles were made by mixing the lipids containing organic phase with the mRNA containing aqueous phase using an N:P ratio of about 6:1. The mRNA was diluted in buffer. Syringe pumps were used to mix the ethanolic lipid solution with the mRNA aqueous solution. The ethanol was then removed, and the external buffer replaced with another buffer (e.g., Tris) by dialysis. Finally, the lipid nanoparticles were filtered.
(§3) Total RNA concentration and encapsulation efficiency was assessed using the RiboGreen RNA quantitation assay. RNA integrity pre and post formulation was monitored by Agilent Fragment Analyzer capillary gel electrophoresis. Malvern Zetasizer dynamic light scattering (DLS) was used to determine LNP size and polydispersity index (PDI). In vitro expression of the novel ionizable lipid nanoparticles was assessed in HEK293F and Hela cells similar to described in Example 72. Nuclear count and identification of cells stained positive for gene of interest was done on an Opera Phenix high content imager (PerkinElmer, USA).

The next data set relates to HEK293F cells. The data set is described as above. In kind it is cell-based. The following applies: LNP with CA HA modFlu mRNA. On the procedure:
as §1, §2, §3

Data set [1] can be described thus: LNP size and polydispersity index by Malvern Zetasizer dynamic light scattering (CA HA modFlu mRNA LNPs). Format: physicochemical. The following applies: DLS; for Size (nm): LNP of the ionizable lipid:cholesterol:DSPC:ALC-0159 about 46.3:42.7:9.4:1.6, N:P about 6:1, CA HA modFlu mRNA; for PDI: LNP with CA HA modFlu mRNA. On the procedure: as §2, §3
Data set [2] in a line: Encapsulation efficiency, RiboGreen RNA quantitation assay (CA HA modFlu mRNA LNPs). In kind it is physicochemical. Particulars: LNP with CA HA modFlu mRNA. As for the experimental part: as §2, §3

Take `CCCCCCCCC(CCCCCC)C(=O)OCCCC(COC(=O)C(CCCCCC)CCCCCCCC)N1CCC2(CCN(CCCCO)CC2)CC1` (centres unmarked) [Example 19, 2-(9-(4-hydroxybutyl)-3,9-diazaspiro[5.5]undecan-3-yl)pentane-1,5-diyl bis(2-hexyldecanoate)]: the “EC50 Hela (ng/well)” value in the data set with Hela cells came out at 0.89 ng/well. Besides, the “EC50 Hek293F (ng/well)” value in the data set with HEK293F cells is 1.4 ng/well. In data set [1], the “Size (nm)” value is recorded as 153 nm and the PDI came to 0.140. In data set [2], this compound had an EE % of 99%.
Regarding `CCCCCCCC(CCCCCCC)C(=O)OCC(COC(=O)C(CCCCCCC)CCCCCCC)N1CCC2(CC1)CN(CCCCO)C2` [Example 20, 2-(2-(4-hydroxybutyl)-2,7-diazaspiro[3.5]nonan-7-yl)propane-1,3-diyl bis(2-heptylnonanoate)], the “EC50 Hela (ng/well)” value with Hela cells came out at 0.28 ng/well. In the data set on HEK293F cells, the “EC50 Hek293F (ng/well)” value turned out to be 0.22 ng/well. Also, in data set [1], the “Size (nm)” value was 105 nm and the PDI came to 0.073. In addition, in data set [2], the EE % is 98%.
Taken in the same sequence, the figures for `CCCCCCCCC(CCCCCC)C(=O)OCC(COC(=O)C(CCCCCC)CCCCCCCC)N1CCC2(CCN(C(C)CCCO)CC2)CC1` (centres unmarked) [Example 21, 2-(9-(5-hydroxypentan-2-yl)-3,9-diazaspiro[5.5]undecan-3-yl)propane-1,3-diyl bis(2-hexyldecanoate)] were 0.41 ng/well, 0.28 ng/well, 159 nm, 0.064 and 99%.
`CCCCCCCC(CCCCCCC)C(=O)OCC(COC(=O)C(CCCCCCC)CCCCCCC)N1CCC2(CCN(CCCCO)C2)CC1` [Example 22, 2-(2-(4-hydroxybutyl)-2,8-diazaspiro[4.5]decan-8-yl)propane-1,3-diyl bis(2-heptylnonanoate)]: the “EC50 Hela (ng/well)” value in the data set on Hela cells is given as 0.39 ng/well. In addition, in the data set with HEK293F cells, the “EC50 Hek293F (ng/well)” value is 0.14 ng/well. Further, in data set [1], the “Size (nm)” value is 107 nm and the PDI came to 0.065. The compound also had an EE % in data set [2] of 99%.
In the case of `CCCCCCCCC(CCCCCC)C(=O)OCC(COC(=O)C(CCCCCC)CCCCCCCC)N1CCC2(CCN(CCCCO)CC2)CC1` (centres unmarked) [Example 23, 2-(9-(4-hydroxybutyl)-3,9-diazaspiro[5.5]undecan-3-yl)propane-1,3-diyl bis(2-hexyldecanoate)], the “EC50 Hela (ng/well)” value in the data set with Hela cells turned out to be 1.2 ng/well. In the data set on HEK293F cells, the “EC50 Hek293F (ng/well)” value was determined as 0.47 ng/well. Besides, in data set [1], the “Size (nm)” value worked out at 144 nm and the PDI came to 0.090. The compound further had an EE % in data set [2] of 100%.
For the compound `CCCCCCCCC(CCCCCCCC)C(=O)OCC(COC(=O)C(CCCCCCCC)CCCCCCCC)N1CCC2(CCN(CCCCO)CC2)CC1` [Example 24, 2-(9-(4-hydroxybutyl)-3,9-diazaspiro[5.5]undecan-3-yl)propane-1,3-diyl bis(2-octyldecanoate)], the “EC50 Hela (ng/well)” value with Hela cells is given as 0.72 ng/well. Also, the “EC50 Hek293F (ng/well)” value with HEK293F cells is listed as 0.48 ng/well. For the same compound, in data set [1], the “Size (nm)” value is 82 nm and the PDI is recorded as 0.072. For the same compound, in data set [2], the EE % amounted to 99%.
Taken in the same sequence, the figures for `CCCCCCCC(CCCCCCC)C(=O)OCC(COC(=O)C(CCCCCCC)CCCCCCC)N1CCC2(CCN(CCCCCO)CC2)CC1` [Example 25, 2-(9-(5-hydroxypentyl)-3,9-diazaspiro[5.5]undecan-3-yl)propane-1,3-diyl bis(2-heptylnonanoate)] were 0.61 ng/well, 0.42 ng/well, 137 nm, 0.040 and 99%.
Consider `CCCCCCCCC(CCCCCCC)C(=O)OCC(COC(=O)C(CCCCCCC)CCCCCCCC)N1CCC2(CCN(CCCCO)CC2)CC1` (centres unmarked) [Example 26, 2-(9-(4-hydroxybutyl)-3,9-diazaspiro[5.5]undecan-3-yl)propane-1,3-diyl bis(2-heptyldecanoate)], for which the “EC50 Hela (ng/well)” value in the data set with Hela cells came to 1.8 ng/well. The “EC50 Hek293F (ng/well)” value in the data set with HEK293F cells is listed as 1.6 ng/well. In data set [1], the “Size (nm)” value turned out to be 96 nm and the PDI amounted to 0.030. Moreover, in data set [2], the EE % is 100%.
Taken in the same sequence, the figures for `CCCCCCCCC(CCCC)C(=O)OCC(COC(=O)C(CCCC)CCCCCCCC)N1CCC2(CCN(CCCCO)CC2)CC1` (centres unmarked) [Example 27, 2-(9-(4-hydroxybutyl)-3,9-diazaspiro[5.5]undecan-3-yl)propane-1,3-diyl bis(2-butyldecanoate)] were 12.5 ng/well, 35.9 ng/well, 74 nm, 0.095 and 97%.
The like results for `CCCCCCCCC(CCCCCC)CC(=O)OCC(COC(=O)CC(CCCCCC)CCCCCCCC)N1CCC2(CCN(CCCCO)CC2)CC1` (centres unmarked) [Example 28, 2-(9-(4-hydroxybutyl)-3,9-diazaspiro[5.5]undecan-3-yl)propane-1,3-diyl bis(3-hexylundecanoate)] were, in that order, 6.4 ng/well, 9.9 ng/well, 96 nm, 0.025 and 99%.
Taken in the same sequence, the figures for `CCCCCCCCC(CCCCC)C(=O)OCC(COC(=O)C(CCCCC)CCCCCCCC)N1CCC2(CCN(CCCCO)CC2)CC1` (centres unmarked) [Example 29, 2-(9-(4-hydroxybutyl)-3,9-diazaspiro[5.5]undecan-3-yl)propane-1,3-diyl bis(2-pentyldecanoate)] were 1.0 ng/well, 0.82 ng/well, 130 nm, 0.050 and 100%.
For `CCCCCCCCC(CC1CCC1)C(=O)OCC(COC(=O)C(CCCCCCCC)CC1CCC1)N1CCC2(CCN(CCCCO)CC2)CC1` (centres unmarked) [Example 30, 2-(9-(4-hydroxybutyl)-3,9-diazaspiro[5.5]undecan-3-yl)propane-1,3-diyl bis(2-(cyclobutylmethyl)decanoate)], the “EC50 Hela (ng/well)” value in the data set with Hela cells was 3.3 ng/well. In addition, the “EC50 Hek293F (ng/well)” value with HEK293F cells is 12.6 ng/well. Besides, in data set [1], the “Size (nm)” value is reported as 102 nm and the PDI was 0.030. The EE % in data set [2] was determined as 99%.
Taken in the same sequence, the figures for `CCCCCCCCCCCCC(CCCCCCC)C(=O)OCC(COC(=O)C(CCCCCCC)CCCCCCCCCCCC)N1CCC2(CCN(CCCCO)CC2)CC1` (centres unmarked) [Example 31, 2-(9-(4-hydroxybutyl)-3,9-diazaspiro[5.5]undecan-3-yl)propane-1,3-diyl bis(2-heptyltetradecanoate)] were 2.9 ng/well, 1.7 ng/well, 121 nm, 0.150 and 99%.
Taken in the same sequence, the figures for `CCCCCCCCC(CC1CCCC1)C(=O)OCC(COC(=O)C(CCCCCCCC)CC1CCCC1)N1CCC2(CCN(CCCCO)CC2)CC1` (centres unmarked) [Example 32, 2-(9-(4-hydroxybutyl)-3,9-diazaspiro[5.5]undecan-3-yl)propane-1,3-diyl bis(2-(cyclopentylmethyl)decanoate)] were 0.91 ng/well, 0.96 ng/well, 132 nm, 0.060 and 100%.
Taken in the same sequence, the figures for `CCCCCCCCC(CCCCCC)C(=O)OCC(COC(=O)C(CCCCCC)CCCCCCCC)N1CCC2(CCN(CCCCO)C2)C1` (centres unmarked) [Example 33, 2-(7-(4-hydroxybutyl)-2,7-diazaspiro[4.4]nonan-2-yl)propane-1,3-diyl bis(2-hexyldecanoate)] were 0.29 ng/well, 0.22 ng/well, 115 nm, 0.090 and 99%.
Take `CCCCCCCCC(CCCCCC)C(=O)OCC(COC(=O)C(CCCCCC)CCCCCCCC)N1CC2(CCN(CCCCO)CC2)C1` (centres unmarked) [Example 34, 2-(7-(4-hydroxybutyl)-2,7-diazaspiro [3.5]nonan-2-yl)propane-1,3-diyl bis(2-hexyldecanoate)]: the “EC50 Hela (ng/well)” value in the data set with Hela cells was found to be 3.8 ng/well. Further, in the data set on HEK293F cells, the “EC50 Hek293F (ng/well)” value is listed as 2.1 ng/well. Also, in data set [1], the “Size (nm)” value amounted to 130 nm and the PDI is recorded as 0.040. The compound further gave an EE % in data set [2] of 99%.
